Experiment: xn = mol fraction of the nth substance listed
Conditions: 101 kPa

CCCCCCCCCCCC[N+](C)(C)Cc1ccccc1.[Cl-] + CC(C)[C@H](NC(=O)CN)C(=O)O + O
electrical conductivity [S/m]
Conditions | 303.15 K | 308.15 K | 313.15 K
x2 = 0.0008945, x1 = 0.0002772 | – | 0.114 | 0.127
x2 = 0.0008945, x1 = 0.0002957 | – | 0.118 | 0.132
x2 = 0.0008945, x1 = 0.0003197 | – | 0.124 | 0.138
x2 = 0.0008946, x1 = 0.0001647 | – | 0.0825 | 0.0908
x2 = 0.0008946, x1 = 0.0001903 | – | 0.0907 | 0.1
x2 = 0.0008946, x1 = 0.0002151 | – | 0.0978 | 0.108
x2 = 0.0008946, x1 = 0.0002373 | – | 0.103 | 0.115
x2 = 0.0008946, x1 = 0.0002578 | – | 0.109 | 0.121
x2 = 0.0008947, x1 = 7.118e-05 | – | 0.041 | 0.0451
x2 = 0.0008947, x1 = 9.37e-05 | – | 0.052 | 0.0571
x2 = 0.0008947, x1 = 0.0001168 | – | 0.0627 | 0.0689
x2 = 0.0008947, x1 = 0.00014 | – | 0.0729 | 0.0801
x2 = 0.0008948, x1 = 4.976e-05 | – | 0.0304 | 0.0335
x2 = 0.001798, x1 = 0.0001623 | 0.0722 | 0.0797 | 0.0879
x2 = 0.001798, x1 = 0.0001897 | 0.08 | 0.0885 | 0.098
x2 = 0.001798, x1 = 0.0002152 | 0.0866 | 0.096 | 0.106
x2 = 0.001798, x1 = 0.0002386 | 0.0922 | 0.102 | 0.114
x2 = 0.001798, x1 = 0.0002594 | 0.097 | 0.108 | 0.12
x2 = 0.001798, x1 = 0.0002777 | 0.101 | 0.113 | 0.126
x2 = 0.001798, x1 = 0.0002962 | 0.105 | 0.118 | 0.131
x2 = 0.001798, x1 = 0.0003218 | 0.112 | 0.124 | 0.139
x2 = 0.001799, x1 = 4.099e-05 | 0.0251 | 0.0278 | 0.0307
x2 = 0.001799, x1 = 6.551e-05 | 0.0356 | 0.0393 | 0.0433
x2 = 0.001799, x1 = 8.875e-05 | 0.0453 | 0.0499 | 0.0549
x2 = 0.001799, x1 = 0.0001114 | 0.0543 | 0.0598 | 0.066
x2 = 0.001799, x1 = 0.000136 | 0.0635 | 0.0695 | 0.0771
